The target of data set [1] is hERG ion channel (Homo sapiens, UniProt Q12809). The data set is described as follows: hERG K+ channel binding assay, displacement of [3H] dofetilide. Particulars: for Ki (hERG) column, value given as % (1 μM): test concentration 1 μM. On the technique in general: hERG is a cardiac potassium channel; its block is linked to QT prolongation.
Data set [2] has as its system Sprague Dawley rats (mechanical allodynia after spinal nerve ligature). In words: Chung model: mononeuropathic pain after spinal nerve ligature (SNL). The data set is classed as in vivo. Particulars: at 5 μg/kg.

A word on the melting point: it is the temperature of the solid-liquid transition. The term Ki denotes the equilibrium dissociation constant of an inhibitor or competing ligand from its target. Read a low Ki as higher affinity.

Chain of hERG ion channel (Q12809 whole entry): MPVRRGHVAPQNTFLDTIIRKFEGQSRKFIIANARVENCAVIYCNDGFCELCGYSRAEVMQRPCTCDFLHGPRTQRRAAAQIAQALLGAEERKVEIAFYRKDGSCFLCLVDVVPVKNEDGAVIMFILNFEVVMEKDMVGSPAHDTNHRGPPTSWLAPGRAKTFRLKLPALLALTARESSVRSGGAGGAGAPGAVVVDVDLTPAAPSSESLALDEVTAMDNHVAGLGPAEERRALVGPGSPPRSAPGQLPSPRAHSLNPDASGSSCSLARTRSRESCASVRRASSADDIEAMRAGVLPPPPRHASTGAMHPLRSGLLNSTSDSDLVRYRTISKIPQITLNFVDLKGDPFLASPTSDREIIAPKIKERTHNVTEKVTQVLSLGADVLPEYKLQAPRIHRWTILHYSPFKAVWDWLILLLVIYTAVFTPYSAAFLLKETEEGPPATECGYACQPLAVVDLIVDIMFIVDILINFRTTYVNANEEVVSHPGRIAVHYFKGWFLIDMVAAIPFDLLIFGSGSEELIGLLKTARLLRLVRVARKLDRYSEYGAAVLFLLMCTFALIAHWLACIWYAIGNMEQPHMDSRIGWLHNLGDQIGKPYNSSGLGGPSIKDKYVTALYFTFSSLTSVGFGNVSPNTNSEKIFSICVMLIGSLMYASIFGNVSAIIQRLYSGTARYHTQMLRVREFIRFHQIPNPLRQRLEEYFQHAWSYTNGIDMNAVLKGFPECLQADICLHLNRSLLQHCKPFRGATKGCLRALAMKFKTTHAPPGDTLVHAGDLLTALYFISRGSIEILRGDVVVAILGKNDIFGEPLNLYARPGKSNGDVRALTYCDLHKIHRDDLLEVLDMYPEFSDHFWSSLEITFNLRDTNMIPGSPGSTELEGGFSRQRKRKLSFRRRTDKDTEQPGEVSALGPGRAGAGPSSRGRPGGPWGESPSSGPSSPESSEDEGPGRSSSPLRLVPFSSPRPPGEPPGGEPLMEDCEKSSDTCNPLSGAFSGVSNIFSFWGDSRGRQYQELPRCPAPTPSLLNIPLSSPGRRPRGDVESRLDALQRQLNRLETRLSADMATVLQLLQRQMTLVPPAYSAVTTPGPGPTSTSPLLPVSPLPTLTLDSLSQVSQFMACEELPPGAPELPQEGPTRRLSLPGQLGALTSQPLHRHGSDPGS

`CN(C)C1(Cc2ccccc2)CCC2(CCCc3c2[nH]c2ccccc32)CC1` (stereo not drawn) yielded a melting point of 174 to 186 °C.

As to `CN(C)C1(c2ccccc2)CCC2(CC1)NCCc1c2[nH]c2ccccc12` (single isomer, unassigned) [C-1, reference compound], the “Ki (hERG) column, value given as % (1 μM)” value in data set [1] is reported as 19% (1 μM). `CN(C)C1(c2ccccc2)CCC2(CC1)NCCc1c2[nH]c2ccccc12` (single isomer, unassigned) [C-2, reference compound] returned a Ki in data set [1] of 490 nM. As to `CN(C)C1(c2ccccc2)CCC2(CCCc3c2[nH]c2ccccc32)CC1` (single isomer, unassigned) [Ex. 1, N,N-dimethyl-4′-phenyl-2,3,4,9-tetrahydrospiro[carbazole-1,1′-cyclohexane]-4′-amine], in data set [1], the “Ki (hERG) column, value given as % (1 μM)” value was 13% (1 μM). Consider `CN(C)C1(c2ccccc2)CCC2(CCCc3c2[nH]c2ccccc32)CC1` (single isomer, unassigned) [Ex. 2, N,N-dimethyl-4′-phenyl-2,3,4,9-tetrahydrospiro[carbazole-1,1′-cyclohexane]-4′-amine], for which the “Ki (hERG) Mean [μM]” value in data set [1] is listed as “n.e”. Further, the “SNL Rat, i.v.” value in data set [2] was found to be 19% MPE.
